Series [1] has as its system Mus musculus. Put plainly: Analgesic activity in Mus musculus (mouse) assessed as inhibition of acetic acid-induced writhing at 71.9 mg/kg, po pretreated 1 hr before acetic acid challenge. The format is functional. Background: An intraperitoneal irritant provokes the stretching counted in writhing tests.
A short description of series [2]: Prodrug conversion in phosphate buffer assessed as half-life for hydrolysis at pH 7.4. The format is physicochemical.
Series [3] can be described thus: Prodrug conversion in acetate buffer assessed as half-life for hydrolysis at pH 3. The format is physicochemical.
Series [4] concerns Rattus norvegicus. As to the kind of experiment: Anti-inflammatory activity in Rattus norvegicus Wistar (rat) assessed as inhibition of carrageenan-induced edema volume at 71.9 mg/kg, po measured after 120 min. The format is functional. Conditions: 2 h. (In the carrageenan paw model, swelling and tenderness develop within hours.)
The subject of series [5] is Rattus norvegicus. Put plainly: Anti-inflammatory activity in Rattus norvegicus Wistar (rat) assessed as inhibition of carrageenan-induced edema volume at 71.9 mg/kg, po measured after 60 min. The format is functional. Conditions: 1 h.
A short description of series [6]: Prodrug conversion in acetate buffer assessed as half-life for hydrolysis at pH 5. The format is physicochemical.
For series [7], the system named is Rattus norvegicus. As to the kind of experiment: Anti-inflammatory activity in Rattus norvegicus Wistar (rat) assessed as inhibition of carrageenan-induced edema volume at 71.9 mg/kg, po measured after 30 min. Type of series: functional. Conditions: 0.5 h.
For series [8], the system named is Rattus norvegicus. Put plainly: Anti-inflammatory activity in Rattus norvegicus Wistar (rat) assessed as inhibition of carrageenan-induced edema volume at 71.9 mg/kg, po measured after 90 min. Type of series: functional. As to conditions: 1.5 h.
Series [9] in a line: Prodrug conversion in acetate buffer assessed as half-life for hydrolysis at pH 4. Type of series: physicochemical.
Series [10] has as its system Rattus norvegicus. As to the kind of experiment: Anti-inflammatory activity in Rattus norvegicus Wistar (rat) assessed as inhibition of carrageenan-induced edema volume at 67.6 mg/kg, po measured after 60 min. The format is functional. As to conditions: 1 h.
Series [11] relates to Mus musculus. Put plainly: Analgesic activity in Mus musculus (mouse) assessed as inhibition of acetic acid-induced writhing at 67.6 mg/kg, po pretreated 1 hr before acetic acid challenge. Type of series: functional.
The test system of series [12] is Rattus norvegicus. Put plainly: Anti-inflammatory activity in Rattus norvegicus Wistar (rat) assessed as inhibition of carrageenan-induced edema volume at 67.6 mg/kg, po measured after 90 min. The format is functional. Conditions: 1.5 h.
The test system of series [13] is Rattus norvegicus. As to the kind of experiment: Anti-inflammatory activity in Rattus norvegicus Wistar (rat) assessed as inhibition of carrageenan-induced edema volume at 67.6 mg/kg, po measured after 30 min. Type of series: functional. Conditions: 0.5 h.
For series [14], the system named is Rattus norvegicus. Put plainly: Anti-inflammatory activity in Rattus norvegicus Wistar (rat) assessed as inhibition of carrageenan-induced edema volume at 67.6 mg/kg, po measured after 120 min. The format is functional. As to conditions: 2 h.
Series [15] deals with Mus musculus. As to the kind of experiment: Analgesic activity in Mus musculus (mouse) assessed as inhibition of acetic acid-induced writhing at 68.9 mg/kg, po pretreated 1 hr before acetic acid challenge. The format is functional.
In series [16] the test system is Rattus norvegicus. As to the kind of experiment: Anti-inflammatory activity in Rattus norvegicus Wistar (rat) assessed as inhibition of carrageenan-induced edema volume at 68.9 mg/kg, po measured after 30 min. Type of series: functional. Conditions: 0.5 h.
The test system of series [17] is Rattus norvegicus. As to the kind of experiment: Anti-inflammatory activity in Rattus norvegicus Wistar (rat) assessed as inhibition of carrageenan-induced edema volume at 68.9 mg/kg, po measured after 120 min. The format is functional. As to conditions: 2 h.
In series [18] the test system is Rattus norvegicus. As to the kind of experiment: Anti-inflammatory activity in Rattus norvegicus Wistar (rat) assessed as inhibition of carrageenan-induced edema volume at 68.9 mg/kg, po measured after 60 min. Type of series: functional. As to conditions: 1 h.
In series [19] the test system is Rattus norvegicus. As to the kind of experiment: Anti-inflammatory activity in Rattus norvegicus Wistar (rat) assessed as inhibition of carrageenan-induced edema volume at 68.9 mg/kg, po measured after 90 min. The format is functional. As to conditions: 1.5 h.
Series [20] concerns Rattus norvegicus. Put plainly: Anti-inflammatory activity in Rattus norvegicus Wistar (rat) assessed as inhibition of carrageenan-induced edema volume at 64.7 mg/kg, po measured after 90 min. Type of series: functional. Conditions: 1.5 h.
The test system of series [21] is Mus musculus. As to the kind of experiment: Analgesic activity in Mus musculus (mouse) assessed as inhibition of acetic acid-induced writhing at 64.7 mg/kg, po pretreated 1 hr before acetic acid challenge. Type of series: functional.
Series [22] relates to Rattus norvegicus. As to the kind of experiment: Anti-inflammatory activity in Rattus norvegicus Wistar (rat) assessed as inhibition of carrageenan-induced edema volume at 64.7 mg/kg, po measured after 30 min. As to conditions: 0.5 h. Type of series: functional.
Series [23] has as its system Rattus norvegicus. Put plainly: Anti-inflammatory activity in Rattus norvegicus Wistar (rat) assessed as inhibition of carrageenan-induced edema volume at 64.7 mg/kg, po measured after 60 min. As to conditions: 1 h. Type of series: functional.
Series [24] relates to Rattus norvegicus. Put plainly: Anti-inflammatory activity in Rattus norvegicus Wistar (rat) assessed as inhibition of carrageenan-induced edema volume at 64.7 mg/kg, po measured after 120 min. The format is functional. As to conditions: 2 h.
Series [25] relates to Rattus norvegicus. As to the kind of experiment: Anti-inflammatory activity in Rattus norvegicus Wistar (rat) assessed as inhibition of carrageenan-induced edema volume at 69.6 mg/kg, po measured after 90 min. The format is functional. As to conditions: 1.5 h.
Series [26] deals with Rattus norvegicus. As to the kind of experiment: Anti-inflammatory activity in Rattus norvegicus Wistar (rat) assessed as inhibition of carrageenan-induced edema volume at 69.6 mg/kg, po measured after 120 min. Type of series: functional. As to conditions: 2 h.
The test system of series [27] is Rattus norvegicus. As to the kind of experiment: Anti-inflammatory activity in Rattus norvegicus Wistar (rat) assessed as inhibition of carrageenan-induced edema volume at 69.6 mg/kg, po measured after 30 min. The format is functional. Conditions: 0.5 h.
Series [28] concerns Mus musculus. Put plainly: Analgesic activity in Mus musculus (mouse) assessed as inhibition of acetic acid-induced writhing at 69.6 mg/kg, po pretreated 1 hr before acetic acid challenge. The format is functional.
Series [29] concerns Rattus norvegicus. As to the kind of experiment: Anti-inflammatory activity in Rattus norvegicus Wistar (rat) assessed as inhibition of carrageenan-induced edema volume at 69.6 mg/kg, po measured after 60 min. Type of series: functional. As to conditions: 1 h.

Drawing on ChEMBL document CHEMBL3045532, “Synthesis and evaluation of novel prodrugs of naproxen” (Med Chem Res, 2011), this text covers inhibition in vivo and t1/2 for five molecules.

As usually defined, the inhibition in vivo is the relative decrease from the control value, in per cent. Take `COc1ccc2cc(C(C)C(=O)OCC(OC(C)=O)C(OC(C)=O)C(OC(C)=O)C(/C=N/[C@@H](Cc3c[nH]c4ccccc34)C(=O)O)OC(C)=O)ccc2c1` (some centres undefined): the inhibition in vivo at 71.9 mg/kg in series [1] is 73.7%; in series [4] it was 70%; in series [5], 16%; in series [7], 18%; in series [8] it was 36%. Also, the t1/2 in [2] worked out at 18 h; in series [3], 88 h; in series [6], 57 h; in [9], 115 h.

As to `COc1ccc2cc(C(C)C(=O)OCC(OC(C)=O)C(OC(C)=O)C(OC(C)=O)C(/C=N/[C@@H](CC(=O)O)C(=O)O)OC(C)=O)ccc2c1` (some centres undefined), the inhibition in vivo at 67.6 mg/kg in series [10] stood at 1%; in [11] it was 75.1%; in [12], 28%; in [13] it was 20%; in series [14] it was 45%.

Consider `COc1ccc2cc(C(C)C(=O)OCC(OC(C)=O)C(OC(C)=O)C(OC(C)=O)C(/C=N/[C@@H](CCC(=O)O)C(=O)O)OC(C)=O)ccc2c1` (some centres undefined), for which the inhibition in vivo at 68.9 mg/kg in series [15] is 64.1%; in series [16], 32%; in series [17], 66%; in [18], 32%; in series [19], 53%.

Consider `COc1ccc2cc(C(C)C(=O)OCC(OC(C)=O)C(OC(C)=O)C(OC(C)=O)C(/C=N/[C@@H](CCCN)C(=O)O)OC(C)=O)ccc2c1` (some centres undefined), for which the inhibition in vivo at 64.7 mg/kg in series [20] was 50%; in series [21] it was 82%; in series [22] it was 24%; in series [23], 32%; in series [24], 67%.

In the case of `COc1ccc2cc(C(C)C(=O)OCC(OC(C)=O)C(OC(C)=O)C(OC(C)=O)C(/C=N/[C@@H](Cc3ccc(O)c(O)c3)C(=O)O)OC(C)=O)ccc2c1` (some centres undefined), the inhibition in vivo at 69.6 mg/kg in [25] came out at 50%; in series [26] it was 73%; in series [27] it was 44%; in series [28], 92.3%; in series [29], 41%.
